# Entries after “also recorded” stand apart in the source; their conditions may differ.
# Tested on: human erythrocytes
# Test: ATP release from erythrocytes at adjusted oxygen / CO2 partial pressure, luciferin assay
# Format: cell-based
# Conditions: for ATP release at various CO2 partial pressures: PCO2 0 to 80 mmHg, 5 minutes; for ATP release from erythrocytes in relation to oxygen partial pressure: PO2 0-150 mmHg, 37° C., 5 min, bezafibrate 10^−4 mol/L (30 min), 100% CO gas 1 min, NO 0.5 equivalents to hemoglobin
# Method: Human peripheral blood sample (20 ml) was taken, heparinized and centrifuged at 2000 rpm for 7 minutes. The erythrocyte pellet was collected and washed. Then, an erythrocyte suspension (1×10^7 cells/ml) was prepared with Krebs buffer. A tightly sealed cuvette containing 1.8 ml of Krebs buffer in which oxygen concentration is adjusted at a desired level within a range of 0-150 mmHg was incubated at 37° C. A 200 μl aliquot of the erythrocyte suspension was injected into the tightly sealed cuvette with a microsyringe. After 5 minutes, the cuvette was placed in ice at 4° C. to terminate the reaction. A 200 μd sample was taken while it was still 4° C., and centrifuged. The ATP in the resultant supernatant was quantitatively determined by luciferin assay.
# In this example, the effects of carbon monoxide-saturated erythrocytes (CO-Hb) and NO treated erythrocytes (αNO-Hb) on ATP release were examined. The method was as described in Example 1 above. In order to examine the effect of NO, an experiment was conducted using erythrocytes prepared as described below. Briefly, collected erythrocytes were completely deoxygenated by feeding argon gas. Then, NO-glutathione was added thereto so that the concentration of this substance to the concentration of Hb was 1:2. Several minutes after the addition, the erythrocytes were centrifuged and recovered. The hemoglobin contained in the above erythrocytes is expressed as “αNO-Hb”.
# Briefly, adenosine was added to the extracellular fluid of erythrocytes for 5 minutes. To a tightly sealed cuvette containing Krebs buffer adjusted to have a desired oxygen partial pressure within a range of 0-150 mmHg, the erythrocyte suspension was injected and the reaction was terminated 1 minute thereafter.
# The method used was according to the method in Example 1. The amounts of ATP release when erythrocytes were exposed to various CO2 partial pressures (PCO2) from 0 to 80 mmHg for 5 minutes were measured.
smiles,measurement,setting,value
O=C=O [carbon dioxide],ATP release at various CO2 partial pressures,Anoxia (no oxygen state),not affected by PCO2
same,ATP release at various CO2 partial pressures,Normoxia,increased at 60-80 mmHg
"[C-]#[O+] [CO, carbon monoxide]",ATP release from erythrocytes in relation to oxygen partial pressure,,this ability was completely eliminated
same,ATP release from erythrocytes in relation to oxygen partial pressure,listed as carbon monoxide,released little ATP regardless of the oxygen partial pressure
Nc1ncnc2c1ncn2[C@@H]1O[C@H](CO)[C@@H](O)[C@H]1O [adenosine],enhancement of ATP release under normal oxygen concentration,1 μmol/L adenosine in extracellular fluid 5 min,enhanced almost two times
same,enhancement of ATP release under no oxygen or low oxygen,"1 μmol/L adenosine in extracellular fluid 5 min, then no/low oxygen 1 minute",enhanced almost two times; also recorded: increases ATP release about two times; also recorded: enhanced about two times
same,"ATP release enhancement, adenosine combined with carbon dioxide","Normoxia, raised PCO2, in the presence of adenosine",synergetic high effect
"O=S(=O)(O)c1cc(N=C=S)ccc1C=Cc1ccc(N=C=S)cc1S(=O)(=O)O [DIDS, 4,4′-diisothiocyanate-stilbene-2,2′-disulfonic acid]",ATP release increase due to low oxygen,"10^−4 mol/L DIDS, oxygen partial pressures of 0-140 mmHg",inhibits ATP release increase due to low oxygen
same,"amount of ATP release, DIDS addition vs no addition","CO(+) erythrocytes, presence/absence of adenosine",no difference
same,"ATP release increase due to low oxygen, concentration-dependent effect","CO-untreated erythrocytes, Anoxia 0 mmHg vs Normoxia",inhibited depending on the concentration of DIDS
"[N]=O [NO, nitric oxide]",ATP release from erythrocytes in relation to oxygen partial pressure,,released ATP constantly regardless of the oxygen concentration
"N[C@@H](CCC(=O)N[C@@H](CSN=O)C(=O)NCC(=O)O)C(=O)O [NO derivative, NO-glutathione]",ATP release from erythrocytes in relation to oxygen partial pressure,,released ATP constantly regardless of the oxygen partial pressure
